Measured values: paper PMC10318822, “Phase 1 dose-escalation study to evaluate the safety, tolerability, pharmacokinetics, and anti-tumor activity of FCN-159 in adults with neurofibromatosis type 1-related unresectable plexiform neurofibromas” (BMC Medicine, 2023)

Tested on: adult patients with NF1-related PN
Experiment: Phase I dose-escalation: DLT, MTD, RP2D and drug-related TEAEs (CTCAE v5.0)
Procedure: This is a multicenter, open-label, single-arm, non-randomized, phase I dose-escalation trial to evaluate the safety, tolerability, pharmacokinetic (PK), and anti-tumor activity of orally administered FCN-159 in adult patients with NF1 (NCT04954001). Phase I commenced with dose escalation in adult patients following a standard 3 + 3 design (Supplementary Table S1) to determine the maximum tolerated dose (MTD) of FCN-159 administered daily under fasting conditions (defined as no food or drink 1 h before and 2 h after each dose) in 28-day cycles. Study drug was dispensed at the study site and patient adherence was monitored by the records of drug dispensation and return. Patients were on treatment until PD, death, patient's voluntary withdrawal from study treatment, or study termination. The study was followed for 2 years after the last patient in. The starting dose was 4 mg, escalating in cohorts of at least three evaluable patients at 6 mg, 8 mg, and 12 mg until the MTD was determined. The starting dose in this study was determined based on available data from a phase 1a, first-in-human study of FCN-159 in patients with advanced NRAS ^mut+ melanoma at the time of study design. […] Dose expansion at a likely RP2D level enrolled approximately six patients. The highest dose level with a dose-limiting toxicity (DLT) incidence rate ≤ 33% (0/3 or 1/6 patients) was to be considered the MTD. If patients experienced grade ≥ 3 and/or unacceptable toxic events that were considered as at least possibly related to the study treatment, the study treatment was discontinued and supportive treatment was given in accordance with local treatment routines. If the toxicity returned to grade ≤ 2 within 28 days after the occurrence, and there was no progression on patients’ conditions or the investigator believed that patients could benefit from the study treatment, the original dose could be maintained or reduced after discussion with medical monitor. After completion of the dose escalation part of the study, PK, efficacy, safety, and tolerability data were analyzed to select the RP2D.
Primary endpoints of the study were the DLT incidence rate, MTD, and RP2D. Secondary endpoints included other safety assessments, imaging tumor response (complete response [CR], PR, stable disease [SD], or progressive disease [PD]), and PK parameters of FCN-159. Adverse events were graded per CTCAE v5.0.
All patients underwent a complete medical history, physical examination, Eastern Cooperative Oncology Group (ECOG) assessment, and laboratory analysis of test results. Drug-related TEAEs, serious adverse events (SAEs), TEAEs of grade ≥ 3 toxicity, and TEAEs leading to drug discontinuation were reviewed on an ongoing basis. Efficacy was assessed by radiologic scans and clinical assessment. Tumor assessments per Response Evaluation in Neurofibromatosis Schwannomatosis criteria were performed by investigators using MRI volumetric analysis every 4 cycles within the first 2 years (± 7 days) and every 6 cycles after 2 years (± 14 days) until PD, death, patient's voluntary withdrawal from study treatment, or study termination. MRI sequences of […], T1- and T2-weighted sequences were chosen and the software of Extended Brilliance Workspace, SIGNA Premier and uExceed were used for MRI volumetric analysis. The same software was used for all tumor assessments at baseline and subsequent assessed timepoints of the same patient. Pain was assessed by an 11-point numerical rating scale (NRS-11).
The sample size for the dose-escalation study was estimated to be 24 based on the 3 + 3 method. Safety was analyzed in patients who received at least one dose of FCN-159 and had at least one safety assessment. DLT was assessed in the DLT analysis set, defined as patients who were enrolled in the dose-escalation study and met the DLT evaluation criteria.

With `Cn1c(=O)c(F)c(Nc2ccc(I)cc2F)c2c(=O)n(C3CC3)nc(-c3cccc(NS(=O)(=O)C4CC4)c3)c21` [FCN-159] the DLT events (4 mg) was “No DLT events were observed”, the “Drug-related TEAE: Abdominal pain” value (4 mg (N = 3)) was 0 n (%) and the “Drug-related TEAE: Acne” value (4 mg (N = 3)) was 0 n (%). For the same compound, the “Drug-related TEAE: Acne pustular” value (4 mg (N = 3)) was 0 n (%), the “Drug-related TEAE: Alanine aminotransferase increased” value (4 mg (N = 3)) was 0 n (%) and the “Drug-related TEAE: Albumin globulin ratio decreased” value (4 mg (N = 3)) was 0 n (%). The “Drug-related TEAE: Alopecia” value (4 mg (N = 3)) was 0 n (%), the “Drug-related TEAE: Amylase increased” value (4 mg (N = 3)) was 0 n (%) and the “Drug-related TEAE: Anemia” value (4 mg (N = 3)) was 0 n (%). The “Drug-related TEAE: Aortic dilatation” value (4 mg (N = 3)) was 0 n (%), the “Drug-related TEAE: Aspartate aminotransferase increased” value (4 mg (N = 3)) was 0 n (%) and the “Drug-related TEAE: Asthenia” value (4 mg (N = 3)) was 0 n (%). For the same compound, the “Drug-related TEAE: Beta globulin decreased” value (4 mg (N = 3)) was 1 (33.3) n (%), the “Drug-related TEAE: Beta globulin increased” value (4 mg (N = 3)) was 1 (33.3) n (%) and the “Drug-related TEAE: Blood alkaline phosphatase increased” value (4 mg (N = 3)) was 0 n (%). For the same compound, the “Drug-related TEAE: Blood bilirubin increased” value (4 mg (N = 3)) was 1 (33.3) n (%), the “Drug-related TEAE: Blood creatine phosphokinase increased” value (4 mg (N = 3)) was 1 (33.3) n (%) and the “Drug-related TEAE: Blood fibrinogen increased” value (4 mg (N = 3)) was 0 n (%). The “Drug-related TEAE: Blood lactate dehydrogenase increased” value (4 mg (N = 3)) was 1 (33.3) n (%), the “Drug-related TEAE: Blood pressure increased” value (4 mg (N = 3)) was 0 n (%) and the “Drug-related TEAE: Blood urea increased” value (4 mg (N = 3)) was 1 (33.3) n (%). The “Drug-related TEAE: Blood uric acid increased” value (4 mg (N = 3)) was 1 (33.3) n (%), the “Drug-related TEAE: Breath odor” value (4 mg (N = 3)) was 0 n (%) and the “Drug-related TEAE: Capillary disorder” value (4 mg (N = 3)) was 1 (33.3) n (%). The “Drug-related TEAE: Constipation” value (4 mg (N = 3)) was 0 n (%), the “Drug-related TEAE: Decreased appetite” value (4 mg (N = 3)) was 0 n (%) and the “Drug-related TEAE: Dermatitis acneiform” value (4 mg (N = 3)) was 0 n (%). For the same compound, the “Drug-related TEAE: Diarrhea” value (4 mg (N = 3)) was 0 n (%), the “Drug-related TEAE: Drug eruption” value (4 mg (N = 3)) was 1 (33.3) n (%) and the “Drug-related TEAE: Dyslipidemia” value (4 mg (N = 3)) was 1 (33.3) n (%). The “Drug-related TEAE: Ejection fraction decreased” value (4 mg (N = 3)) was 0 n (%), the “Drug-related TEAE: Electrocardiogram QT prolonged” value (4 mg (N = 3)) was 0 n (%) and the “Drug-related TEAE: Electrocardiogram abnormal” value (4 mg (N = 3)) was 0 n (%). For the same compound, the “Drug-related TEAE: Epistaxis” value (4 mg (N = 3)) was 1 (33.3) n (%), the “Drug-related TEAE: Folliculitis” value (4 mg (N = 3)) was 0 n (%) and the “Drug-related TEAE: Functional gastrointestinal disorder” value (4 mg (N = 3)) was 0 n (%). The “Drug-related TEAE: Gamma-glutamyltransferase increased” value (4 mg (N = 3)) was 0 n (%), the “Drug-related TEAE: Gingival pain” value (4 mg (N = 3)) was 0 n (%) and the “Drug-related TEAE: Hyperlipidemia” value (4 mg (N = 3)) was 0 n (%). The “Drug-related TEAE: Hypertension” value (4 mg (N = 3)) was 0 n (%), the “Drug-related TEAE: Hypoalbuminemia” value (4 mg (N = 3)) was 0 n (%) and the “Drug-related TEAE: Hypocalcemia” value (4 mg (N = 3)) was 0 n (%). The “Drug-related TEAE: Hypophosphatemia” value (4 mg (N = 3)) was 0 n (%), the “Drug-related TEAE: Hypoproteinemia” value (4 mg (N = 3)) was 0 n (%) and the “Drug-related TEAE: Immunoglobulins increased” value (4 mg (N = 3)) was 2 (66.7) n (%). For the same compound, the “Drug-related TEAE: Impetigo” value (4 mg (N = 3)) was 1 (33.3) n (%), the “Drug-related TEAE: Left atrial enlargement” value (4 mg (N = 3)) was 0 n (%) and the “Drug-related TEAE: Lipoprotein abnormal” value (4 mg (N = 3)) was 1 (33.3) n (%). For the same compound, the “Drug-related TEAE: Malaise” value (4 mg (N = 3)) was 1 (33.3) n (%), the “Drug-related TEAE: Menstrual disorder” value (4 mg (N = 3)) was 0 n (%) and the “Drug-related TEAE: Mitral valve incompetence” value (4 mg (N = 3)) was 0 n (%). For the same compound, the “Drug-related TEAE: Mouth ulceration” value (4 mg (N = 3)) was 0 n (%), the “Drug-related TEAE: Muscular weakness” value (4 mg (N = 3)) was 0 n (%) and the “Drug-related TEAE: Oedema peripheral” value (4 mg (N = 3)) was 0 n (%). For the same compound, the “Drug-related TEAE: Pain in extremity” value (4 mg (N = 3)) was 1 (33.3) n (%), the “Drug-related TEAE: Paronychia” value (4 mg (N = 3)) was 1 (33.3) n (%) and the “Drug-related TEAE: Prealbumin decreased” value (4 mg (N = 3)) was 0 n (%). For the same compound, the “Drug-related TEAE: Protein urine present” value (4 mg (N = 3)) was 1 (33.3) n (%), the “Drug-related TEAE: Pruritus” value (4 mg (N = 3)) was 0 n (%) and the “Drug-related TEAE: QRS axis abnormal” value (4 mg (N = 3)) was 1 (33.3) n (%). For the same compound, the “Drug-related TEAE: Rash” value (4 mg (N = 3)) was 1 (33.3) n (%), the “Drug-related TEAE: Sinus arrhythmia” value (4 mg (N = 3)) was 1 (33.3) n (%) and the “Drug-related TEAE: Sinus bradycardia” value (4 mg (N = 3)) was 1 (33.3) n (%). The “Drug-related TEAE: Sinusitis” value (4 mg (N = 3)) was 0 n (%), the “Drug-related TEAE: Skin exfoliation” value (4 mg (N = 3)) was 0 n (%) and the “Drug-related TEAE: Specific gravity urine increased” value (4 mg (N = 3)) was 1 (33.3) n (%). The “Drug-related TEAE: Stomatitis” value (4 mg (N = 3)) was 2 (66.7) n (%), the “Drug-related TEAE: Supraventricular extrasystoles” value (4 mg (N = 3)) was 1 (33.3) n (%) and the “Drug-related TEAE: Total bile acids increased” value (4 mg (N = 3)) was 1 (33.3) n (%). The “Drug-related TEAE: Tricuspid valve incompetence” value (4 mg (N = 3)) was 0 n (%), the “Drug-related TEAE: Urinary occult blood positive” value (4 mg (N = 3)) was 0 n (%) and the “Drug-related TEAE: Urinary sediment present” value (4 mg (N = 3)) was 0 n (%). The “Drug-related TEAE: Urinary tract infection” value (4 mg (N = 3)) was 0 n (%), the “Drug-related TEAE: Urine ketone body present” value (4 mg (N = 3)) was 0 n (%) and the “Drug-related TEAE: Urobilinogen urine increased” value (4 mg (N = 3)) was 2 (66.7) n (%). The “Drug-related TEAE: Urticaria” value (4 mg (N = 3)) was 0 n (%), the “Drug-related TEAE: Vision blurred” value (4 mg (N = 3)) was 0 n (%) and the “Drug-related TEAE: Visual acuity reduced” value (4 mg (N = 3)) was 0 n (%). The “Drug-related TEAE: pH urine decreased” value (4 mg (N = 3)) was 0 n (%), the “Drug-related TEAE: pH urine increased” value (4 mg (N = 3)) was 1 (33.3) n (%) and the “Subjects with any drug-related TEAE” value (4 mg (N = 3)) was 3 (100) n (%). The DLT events (6 mg) was “No DLT events were observed”, the “Drug-related TEAE: Abdominal pain” value (6 mg (N = 4)) was 0 n (%) and the “Drug-related TEAE: Acne” value (6 mg (N = 4)) was 1 (25.0) n (%). For the same compound, the “Drug-related TEAE: Acne pustular” value (6 mg (N = 4)) was 0 n (%), the “Drug-related TEAE: Alanine aminotransferase increased” value (6 mg (N = 4)) was 1 (25.0) n (%) and the “Drug-related TEAE: Albumin globulin ratio decreased” value (6 mg (N = 4)) was 0 n (%). For the same compound, the “Drug-related TEAE: Alopecia” value (6 mg (N = 4)) was 1 (25.0) n (%), the “Drug-related TEAE: Amylase increased” value (6 mg (N = 4)) was 0 n (%) and the “Drug-related TEAE: Anemia” value (6 mg (N = 4)) was 0 n (%). For the same compound, the “Drug-related TEAE: Aortic dilatation” value (6 mg (N = 4)) was 0 n (%), the “Drug-related TEAE: Aspartate aminotransferase increased” value (6 mg (N = 4)) was 2 (50.0) n (%) and the “Drug-related TEAE: Asthenia” value (6 mg (N = 4)) was 1 (25.0) n (%). The “Drug-related TEAE: Beta globulin decreased” value (6 mg (N = 4)) was 0 n (%), the “Drug-related TEAE: Beta globulin increased” value (6 mg (N = 4)) was 1 (25.0) n (%) and the “Drug-related TEAE: Blood alkaline phosphatase increased” value (6 mg (N = 4)) was 1 (25.0) n (%). The “Drug-related TEAE: Blood bilirubin increased” value (6 mg (N = 4)) was 2 (50.0) n (%), the “Drug-related TEAE: Blood creatine phosphokinase increased” value (6 mg (N = 4)) was 0 n (%) and the “Drug-related TEAE: Blood fibrinogen increased” value (6 mg (N = 4)) was 0 n (%). For the same compound, the “Drug-related TEAE: Blood lactate dehydrogenase increased” value (6 mg (N = 4)) was 1 (25.0) n (%), the “Drug-related TEAE: Blood pressure increased” value (6 mg (N = 4)) was 0 n (%) and the “Drug-related TEAE: Blood urea increased” value (6 mg (N = 4)) was 2 (50.0) n (%). The “Drug-related TEAE: Blood uric acid increased” value (6 mg (N = 4)) was 1 (25.0) n (%), the “Drug-related TEAE: Breath odor” value (6 mg (N = 4)) was 2 (50.0) n (%) and the “Drug-related TEAE: Capillary disorder” value (6 mg (N = 4)) was 0 n (%). For the same compound, the “Drug-related TEAE: Constipation” value (6 mg (N = 4)) was 0 n (%).
